The source of these data is patent US8420307B2, “Sperm cryoprotective media” (The Jackson Laboratory, priority 2006, dated 2013).

The experiment has as its system reactive oxygen species within cryopreserved mouse sperm. Nature of the experiment: Intracellular reactive oxygen species by CM-H2DCFDA dye and flow cytometry after tert-butyl hydroperoxide challenge. It is filed as cell-based. The note with it: for level of reactive oxygen species within cryopreserved mouse sperm (relative fluorescence): C57BL/6 sperm, diluted 1:1 with solution supplemented with 954 mM MTG, 1 mM GSH or 2 mM DTT before freezing, FIGS. 7A and 7B. As for the experimental part:
Sperm cryopreserved in the presence and absence of the free radical scavenger, the reducing agent monothioglycerol (MTG), are loaded with the green fluorescent dye CM-H2DCFDA to measure intracellular reactive oxygen species. The sperm are challenged with varying levels of Tert-Butylhydrogen peroxide to induce oxidative damage and green fluorescence is measured using flow cytometry.
For example, the capability to reduce ROS can be tested by a dye/sperm method as described in Example 4 and also see publications by Nelid et al 2006 and Guthrie and Welch 2006. Either fresh or cryopreserved sperm can be used in this assay. For example, sperm collected from the vas deferens and epididymis of two C57BL/6J mice into 1 mL of a solution containing 3% skim milk (w/v; BD Diagnostics; cat #232100) and 18% raffinose (w/v; Sigma; cat #R7630). A fraction of the collected sperm was diluted 1:1 in the same skim milk raffinose solution while another fraction was diluted 1:1 using the skim milk raffinose solution supplemented with […] monothioglycerol (MTG; Sigma Aldrich; cat #M6145). Another set of C57BL/6J males was used to collect sperm and dilute in the skim milk raffinose solution with 1 mM glutathione (GSH; Sigma Aldrich; cat #G6013) or 2 mM dithiothreitol (DTT; Sigma Aldrich; cat #646563). The sperm was cryopreserved as described in Example 1 and stored in liquid nitrogen for at least 24 hours.
To determine if MTG, GSH or DTT can act as a free radical scavenger, the sperm were thawed and loaded with the green fluorescent dye 5-(and-6)-chloromethyl-2′,7′-dichlorodihydrofluorescein diacetate (CM-H2DCFDA; Invitrogen C6827). This dye is a cell-permeant indicator for reactive oxygen species that is nonfluorescent until removal of the acetate groups by intracellular esterases and oxidation occurs within the cell. The emission of fluorescence correlates with ROS generation as a result of DCFH oxidation. To load the sperm, at least 150 μL of sperm were thawed and diluted 1:1 in a sperm incubation media described by Bath et al. ((Bath 2003); 123 mM NaCl; 4.7 mM KCl; 0.2 mM MgSO4.7H2O; 10 mM;NaHCO3 21 mM HEPES; 0.33 mM sodium pyruvate; 4.6 mM glucose; 100 IU/mL penicillin G; 1.33 mg/mL BSA). The lyophilized dye was resuspended in dimethylsulfoxide to a concentration of 432.5 μM and then added to the cells, such that the final dye concentration was 40 μM. […] The samples were loaded onto either a FACScan (BD Biosciences; Franklin Lakes, N.J.) or FACSCalibur (BD Biosciences; Franklin Lakes, N.J.) flow cytometer and the green fluorescence was measured on at about 5,000 viable sperm. […]
On the technique in general: In flow cytometry, cells or beads pass a laser one at a time.

Regarding `O[C@H](CS)[C@H](O)CS` (racemic) [DTT, dithiothreitol], the “level of reactive oxygen species within cryopreserved mouse sperm (relative fluorescence)” value (from here on “level … (relative fluorescence)”) is given as “limited the level of ROS”.

For the compound `N[C@@H](CCC(=O)N[C@@H](CS)C(=O)NCC(=O)O)C(=O)O` [GSH, reduced glutathione], the “level … (relative fluorescence)” value is on record as “limited the level of ROS”. Regarding `OCC(O)CS` (stereo not shown) [MTG, monothioglycerol], the “level … (relative fluorescence)” value is listed as “limited the level of ROS”. Where the note is “sperm from C57BL/6J (B6) and BALB/cByJ (BALB/cBy) mice, FIG. 3”, the “ROS in cryopreserved sperm (green fluorescence)” value is “reduces the ROS”.
